Laboratory results reported in US5576177A, “Bioassay for reverse transcriptase inhibitors” (St. Jude Children's Research Hospital, priority 1994, dated 1996).
Where two headings read alike, the source gives them in different places.

Assays:
[1] = target: HIV-1 reverse transcriptase (HIV-1 M:B_HXB2R, UniProt P04585); assay: Inhibition of HIV-1 reverse transcriptase (TTP incorporation, poly[rA]-oligo[dT]12-18 primer-template); assay type: biochemical; settings: for inhibition of reverse transcriptase activity (effect on reaction kinetics): at concentrations of up to 10,000 fmols
Experimental: (§1) Reverse transcriptase assays were performed using substantially purified HIV-1 reverse transcriptase and poly[rA]-oligo[dT]12-18 as primer-template. The reactions were carried out in a total volume of 10 μl; a 4.5 μl volume of the sample was mixed with an equal volume of a reaction mixture to provide a final concentration of 50 mM Tris (pH 8.5), 6 mM MgCl2, 10 mM dithiothreitol (DTT), 2.0 μg bovine serum albumin (BSA), 0.5 μCi TTP, 80 mM KCl, and 0.05% Triton X-100. The reaction was initiated by the addition of 1.0 μl of HIV reverse transcriptase (containing~1 ng protein; from American BioTechnology,Cambridge, Mass.; Cat. No. 26001). After 1 hour incubation at 37° C., the reaction was stopped by the addition of 5.0 μof stop buffer (50 mM EDTA+3% SDS). The reverse transcriptase products (polymerization products) were separated from the unincorporated label by chromatography on Sephadex G-25 (superfine) columns. The fractions corresponding to the void volume were collected and counted by scintillation counting.

CEM cells [2] = assay: Zidovudine triphosphate level in CEM cells by reverse transcriptase bioassay; assay type: in vitro ADME; settings: 4 hr incubation with 1 μM zidovudine, n = 3
Experimental: (§2) Preparation of cell extracts. […] The cell pellets were resuspended in 1 ml of residual media and layered onto 150 μl of nyosil oil, and spun through the oil. The media above the oil layer was removed, and any residual media was removed by rinsing the area above the oil layer by two gentle water washes. Finally, the oil was removed and the cells were extracted with 70% methanol+15 mM Tris-HCl buffer (pH 7.4) for at least 15 min on ice. The debris was removed by centrifugation and the samples stored at -20° C. until required.
Reverse transcriptase assays were performed using substantially purified HIV-1 reverse transcriptase and poly[rA]-oligo[dT]12-18 as primer-template. The reactions were carried out in a total volume of 10 μl; a 4.5 μl volume of the sample was mixed with an equal volume of a reaction mixture to provide a final concentration of 50 mM Tris (pH 8.5), 6 mM MgCl2, 10 mM dithiothreitol (DTT), 2.0 μg bovine serum albumin (BSA), 0.5 μCi TTP, 80 mM KCl, and 0.05% Triton X-100. […] The fractions corresponding to the void volume were collected and counted by scintillation counting.
(§3) One fraction was analyzed by HPLC and zidovudine metabolites were quantitated by usual radioisotopic methods.
Cell extracts were analyzed and quantified by using the different assays as described in Materials and Methods. […]

CEM cells [3] = assay: Zidovudine triphosphate level in CEM cells by HPLC-RIA; assay type: in vitro ADME; settings: 4 hr incubation with 1 μM zidovudine, n = 3
Experimental: as §3
(§4) Cell extracts were analyzed and quantified by using the different assays as described in Materials and Methods. Statistical parameters represent the standard deviation of the mean (δ) of three determinations of parallel samples.
CEM cells were extracted in the same manner as cultured peripheral blood mononuclear cell samples (see Materials and Methods). […] The samples were cleaned up using Waters Sep-pak C-18 cartridges. The cartridges were conditioned with 10% methanol and then rinsed with water. Each sample was applied separately and eluted with 50% methanol. The samples were vacuum desiccated to a volume under 500 μl and further purified with a 250 mm Whatman ODS-3 column. Buffer A was 35% methanol and buffer B was 50% methanol. The gradient was 15 min at 0% B followed by 20 min at 100% B with a flow rate of 0.5 ml/min and fractions collected every min. The fractions containing zidovudine were pooled and vacuum desiccated to dryness. […] The antibody was diluted 1:3 and preincubated with the sample 2 hours.

[4] = test system: peripheral blood mononuclear cells; settings: AIDS patients receiving 300 mg oral zidovudine; cited from earlier work
CEM cells [5] = assay: Zidovudine triphosphate level in CEM cells by HPLC-radioactive method; assay type: in vitro ADME; settings: 4 hr incubation with 1 μM zidovudine, n = 1
Experimental: as §2, §3
(§5) Buffers used in the separation procedure were A--0.005M ammonium phosphate at pH 4.0+10% methanol and B--0.7M ammonium phosphate at pH 4.6+10% methanol.
as §4

[6] = test system: human immunodeficiency virus reverse transcriptase; settings: cited from earlier work
[7] = test system: peripheral blood mononuclear cells; assay: Intracellular zidovudine triphosphate in peripheral blood mononuclear cells of HIV-infected volunteers (reverse transcriptase bioassay); assay type: in vivo, human
Experimental: Peripheral blood mononuclear cell isolation. Heparinized blood from normal human volunteers or asymptomatic HIV seropositive individuals was diluted 1:1 with HBSS, layered onto LSM (Ficoll hypaque) and then separated by centrifugation for 30 min at 400×g. The mononuclear cell layer was removed, washed once with growth media, counted, and pelleted by centrifugation. The cells were then resuspended in growth medium (RPMI containing 10% fetal calf serum) and the residual erythrocytes lysed by the addition of 3 volumes of cold water for 30 seconds. Erythrocyte lysis was stopped by the addition of 1 volume of 0.6M sodium chloride, and the mononuclear cells were pelleted by centrifugation.
Uncultured peripheral blood mononuclear cells from zidovudine-treated patients were resuspended in 1 ml of media and transferred to a 1.5 ml centrifuge tube, spun 1 min at 14,000 rpm, the media removed, and pulsed again to allow removal of any residual media. The cells were extracted for at least 15 min with 200 μl of ice cold 70% methanol per 1×10^7 cells. The cell debris was removed by centrifugation for 15 min at 14,000 rpm and the supernate stored in -20° C. until required for analysis. Prior to use, the extracts were dried under vacuum and resuspended in 50 μl of 5 mM Tris-HCl buffer (pH 8.5); extracts from 0.5×10^7 CEM cells or 1×10^7 cultured peripheral blood mononuclear cells were reconstituted in 200 μl buffer.
as §1
The zidovudine-free peripheral blood mononuclear cells from each individual at baseline (untreated) served as the cell background to construct the standard curve for zidovudine triphosphate determination.
(§6) Individuals in this study were HIV-infected individuals recruited from an area clinic. […] CD4 and CD8 cell counts were determined from baseline samples.

[8] = Plasma zidovudine concentrations and pharmacokinetics in HIV-infected volunteers (RIA); assay type: in vivo, human; settings: for concentration at 1 h: po; for AUC: read-out: AUC (area under the curve), median; for half-life: read-out: t1/2 (half life), median (converted)
Experimental: Pharmacokinetic studies in patients. To assess the utility and sensitivity of the bioassay of the invention in patients, a clinical study was performed. The study was approved by the Institutional Review Board of St. Jude Children's Research Hospital and informed consent was obtained from each individual according to institutional procedures.
as §6
Prior distributions for the parameters were assumed to be log normally distributed with known but independent variances (i.e., no parameter covariance) and were taken from previous studies in similar patients (Flether et al., Pharmacotherapy 12:429-434 (1992)).
Plasma samples were heat inactivated at 56° C. for 4 hours prior to assay. The samples were diluted to obtain values within a standard curve range of 10-200 ng/ml with 200 μl of sample. […] Five-hundred μl of a secondary antibody precipitating complex was added and incubated for 20 min at room temperature. The resultant mixtures were centrifuged, the supernate decanted, and the precipitate counted using an LKB gamma counter connected to an IBM PC computer with an RIA Calif. LC software program.

[9] = test system: peripheral blood mononuclear cells; assay: Phosphorylation of zidovudine in peripheral blood mononuclear cells in vitro; assay type: in vitro ADME, human; settings: proliferating compared to resting cells; 1 μM [^3 H]zidovudine
Experimental: Culture of human peripheral blood mononuclear cells. The peripheral blood mononuclear cells were suspended in growth media and transferred to plastic tissue culture flasks. The monocyte/macrophage cells were allowed to adhere to the flask for at least 60 min after which the non-adherent cells comprises primarily of lymphocytes were transferred to a new flask. The cells were stimulated by addition of 5 μg/ml of PHA-P and 10 units/ml of IL-2 and incubated for 72 hours at 37° C. prior to use. Fresh media was added every 24 hours to maintain the IL-2 concentration. If quiescent cells were required the PHA-P and IL-2 were omitted and the cells were used the following day.
as §2, §5

[10] = 10 to 500 fmol, no cell extract
[11] = spiked with extract of peripheral blood mononuclear cells (about 10^6 cells)
[12] = human, plasma, 100 mg single oral dose
[13] = human, plasma, 500 mg single oral dose

With Cc1cn([C@H]2C[C@H](O)[C@@H](COP(=O)(O)O)O2)c(=O)[nH]c1=O [thymidine monophosphate (TMP), thymidine monophosphate] the “inhibition of reverse transcriptase activity (effect on reaction kinetics)” value [1] was “did not affect the reaction kinetics”.
For Cc1cn([C@H]2C[C@H](N=[N+]=[N-])[C@@H](CO[P@](=O)(O)O[P@](=O)(O)OP(=O)(O)O)O2)c(=O)[nH]c1=O [zidovudine triphosphate], the “Zidovudine Triphosphate” value (CEM cells [2]) is listed as 1.39 ± 0.17 pmol/10^6 cells, the “Zidovudine Triphosphate” value (CEM cells [3]) is listed as 1.50 ± 0.65 pmol/10^6 cells and the “zidovudine triphosphate level relative to the patent's results” value [4] is listed as 10 -fold higher. For the same compound, the “Zidovudine Triphosphate” value (CEM cells [5]) was 1.42 pmol/10^6 cells, the “inhibition of HIV reverse transcriptase” value [6] was “potent inhibitor” and the “reverse transcriptase chain termination” value [6] was “causes reverse transcriptase chain termination”. For the same compound, the “coefficient of regression of linear inhibition kinetics” value [1, 10] was 0.99, the “inhibition kinetics of HIV reverse transcriptase” value [1, 10] was “linear inhibition kinetics” and the “R of linear inhibition kinetics” value [1, 11] was over 0.98. For the same compound, the “inhibition kinetics of HIV reverse transcriptase” value [1, 11] was “good linear kinetics”, the “proportion of median plateau values” ([7]; 500 mg vs 100 mg) was 1.7 and the “time course of zidovudine triphosphate values” ([7]; 1 to 6 hours after zidovudine) was “increased from 1 to 2 hours (Table 3 (below)) and then remained at a plateau value through 6 hours”. For the same compound, the “measurability of zidovudine triphosphate after zidovudine administration” value ([7]; 100 or 500 mg zidovudine) was “could be measured in all 12 volunteers”, the “Median Ratio (500/100)” value ([7]; 1 h) was 8.4 and the “Median Ratio (500/100)” value ([7]; 2 h) was 1.6. The “Median Ratio (500/100)” value ([7]; 4 h) was 1.5, the “Median Ratio (500/100)” value ([7]; 6 h) was 2.1 and the “% CV range of intracellular zidovudine triphosphate” value ([7]; after 100 or 500 mg zidovudine) was 52-157%.
With Cc1cn([C@H]2C[C@H](N=[N+]=[N-])[C@@H](CO)O2)c(=O)[nH]c1=O [zidovudine, 3'-azido-3'-deoxythymidine] the “Plasma Zidovudine” value ([8]; 100 mg single oral dose, 6 h, #ND = plasma zidovudine concentration below standard curve in 4 of 5 patients) was “ND#”, the “difference of CLo between dose groups” value ([8]; 100 mg vs 500 mg, p>0.2 by Mann-Whitney U test) was “not significantly different” and the concentration at 1 h ([8]; human, plasma, 100 mg dose) was 1790 nM. For the same compound, the concentration at 1 h ([8]; human, plasma, 500 mg dose) was 6300 nM, the concentration at 2 h [8, 12] was 760 nM and the concentration at 4 h [8, 12] was 260 nM. For the same compound, the AUC [8, 12] was 1200 ng·h/mL, the half-life [8, 12] was 1.29 h and the concentration at 2 h [8, 13] was 3000 nM. It also gave a concentration at 4 h [8, 13] of 900 nM, a concentration at 6 h ([8]; human, plasma, 500 mg single oral dose, 6 h) of 360 nM and an AUC [8, 13] of 4200 ng·h/mL. For the same compound, the half-life [8, 13] was 1.07 h and the “phosphorylation rate of zidovudine” value [9] was “high phosphorylation rate”.
For Cc1cn([C@H]2C[C@H](N=[N+]=[N-])[C@@H](COP(=O)(O)O)O2)c(=O)[nH]c1=O [zidovudine-MP], the “inhibition of reverse transcriptase activity (effect on reaction kinetics)” value [1] was “did not affect the reaction kinetics”.
